The values that follow come from ChEMBL document CHEMBL4400561, “Isolation, structural elucidation, and insights into the anti-inflammatory effects of triterpene saponins from the leaves of Stauntonia hexaphylla” (Bioorg Med Chem Lett, 2019).

Molecules are shown by their SMILES. Where only a bound is given, the exact number is not on record here.

Data set [1] relates to RAW264.7. As to the kind of experiment: Anti-inflammatory activity in mouse LPS-stimulated RAW264.7 cells assessed as decrease in PGE2 levels at preincubated for 1 hr followed by LPS-stimulation and measured after 12 hrs by ELISA. The data set is classed as functional, cell-based. On the technique in general: An ELISA detects its analyte on a solid surface through an enzyme-linked reagent.

Data set [2] has as its system RAW264.7. As to the kind of experiment: Anti-inflammatory activity in mouse LPS-stimulated RAW264.7 cells assessed as decrease in iNOS protein levels preincubated for 1 hr followed by LPS-stimulation and measured after 16 hrs by Western blot analysis. The data set is classed as functional, cell-based. Background: In western blotting, separated proteins are transferred to a membrane and probed.

In data set [3] the test system is RAW264.7. As to the kind of experiment: Anti-inflammatory activity in mouse LPS-stimulated RAW264.7 cells assessed as decrease in IL1beta levels preincubated for 1 hr followed by LPS-stimulation and measured after 12 hrs by ELISA. The data set is classed as functional, cell-based.
The subject of data set [4] is RAW264.7. As to the kind of experiment: Anti-inflammatory activity in mouse LPS-stimulated RAW264.7 cells assessed as decrease in COX2 protein levels preincubated for 1 hr followed by LPS-stimulation and measured after 16 hrs by Western blot analysis. Type of data set: functional, cell-based.
Data set [5] relates to RAW264.7. The experiment in a line: Cytotoxicity against mouse RAW264.7 cells at anti-inflammatory IC50 after 19 hrs by MTT assay. The conditions noted are these: raw264.7, 19 h. Type of data set: cell-based. For orientation: Tetrazolium dyes change colour on reduction, which living cells bring about.
Data set [6] concerns RAW264.7. As to the kind of experiment: Anti-inflammatory activity in mouse LPS-stimulated RAW264.7 cells assessed as decrease in TNFalpha levels preincubated for 1 hr followed by LPS-stimulation and measured after 12 hrs by ELISA. Type of data set: functional, cell-based.
Data set [7] concerns RAW264.7. As to the kind of experiment: Anti-inflammatory activity in mouse LPS-stimulated RAW264.7 cells assessed as decrease in IL6 levels preincubated for 1 hr followed by LPS-stimulation and measured after 12 hrs by ELISA. Type of data set: functional, cell-based.
In data set [8] the test system is RAW264.7. As to the kind of experiment: Anti-inflammatory activity in mouse RAW264.7 cells assessed as inhibition of LPS-induced NO production preincubated for 1 hr followed by LPS-stimulation and measured after 18 hrs by Griess reagent-based assay. Type of data set: functional, cell-based.

With `CC1(C)CC[C@]2(C(=O)O)CC[C@]3(C)C(=CC[C@@H]4[C@@]5(C)CC[C@H](O[C@@H]6OC[C@H](O)[C@H](O)[C@H]6O[C@@H]6O[C@H](CO)[C@@H](O)[C@H](O)[C@H]6O)C(C)(C)[C@@H]5CC[C@]43C)[C@@H]2C1`, the inhibition entry in data set [1], in data set [2], in data set [3], in data set [4], in data set [6] and in data set [7] was “Dose-dependent effect” throughout. The Activity entry in data set [5] is listed as “Non-Toxic”. Besides, the IC50 (in general, the concentration that gives 50% inhibition) in data set [8] was 1.82 µM.
As to `C[C@@H]1O[C@@H](O[C@H]2[C@H](O[C@H]3CC[C@]4(C)[C@H]5CC=C6[C@@H]7CC(C)(C)CC[C@]7(C(=O)O)CC[C@@]6(C)[C@]5(C)CC[C@H]4C3(C)C)OC[C@H](O[C@@H]3O[C@H](CO)[C@@H](O)[C@H](O)[C@H]3O)[C@@H]2O)[C@H](O)[C@H](O)[C@H]1O` [HEDERACOLCHISIDE A1], the inhibition entry in data set [1], in data set [2], in data set [3], in data set [4], in data set [6] and in data set [7] was “Dose-dependent effect” each time. The Activity entry in data set [5] is recorded as “Non-Toxic”. Besides, the IC50 in data set [8] worked out at 0.59 µM.
With `CC1(C)CC[C@]2(C(=O)O[C@@H]3O[C@H](CO[C@@H]4O[C@H](CO)[C@@H](O)[C@H](O)[C@H]4O)[C@@H](O)[C@H](O)[C@H]3O)CC[C@]3(C)C(=CC[C@@H]4[C@@]5(C)CC[C@H](O[C@@H]6OC[C@H](O)[C@H](O)[C@H]6O)C(C)(C)[C@@H]5CC[C@]43C)[C@@H]2C1`, the Activity result in data set [5] is reported as “Non-Toxic”. In addition, in data set [8], the IC50 is greater than 50 µM.
Regarding `CC1(C)CC[C@]2(C(=O)O[C@@H]3O[C@H](CO[C@@H]4O[C@H](CO)[C@@H](O)[C@H](O)[C@H]4O)[C@@H](O)[C@H](O)[C@H]3O)CC[C@]3(C)C(=CC[C@@H]4[C@@]5(C)CC[C@H](O[C@@H]6OC[C@H](O)[C@H](O)[C@H]6O[C@@H]6O[C@H](CO)[C@@H](O)[C@H](O)[C@H]6O)C(C)(C)[C@@H]5CC[C@]43C)[C@@H]2C1`, the Activity result in data set [5] was “Non-Toxic”. In addition, the IC50 in data set [8] was greater than 50 µM.
As for `C[C@@H]1C[C@H]2[C@@H]3CCC4=CC(=O)C=C[C@]4(C)[C@@]3(F)[C@@H](O)C[C@]2(C)[C@@]1(O)C(=O)CO` [DEXAMETHASONE], in data set [5], the Activity result was “Non-Toxic”. In addition, the IC50 in data set [8] was 0.13 µM.
`C=C1CC[C@]2(C(=O)O[C@@H]3O[C@H](CO[C@@H]4O[C@H](CO)[C@@H](O)[C@H](O)[C@H]4O)[C@@H](O)[C@H](O)[C@H]3O)CC[C@]3(C)C(=CC[C@@H]4[C@@]5(C)CC[C@H](O[C@@H]6OC[C@H](O)[C@H](O)[C@H]6O[C@@H]6O[C@H](CO)[C@@H](O)[C@H](O)[C@H]6O)C(C)(C)[C@@H]5CC[C@]43C)[C@@H]2C1`: the Activity entry in data set [5] is listed as “Non-Toxic”. The IC50 in data set [8] was greater than 50 µM.
